Test results taken from ChEMBL document CHEMBL1124217, “2,4-Diamino-5-benzylpyrimidines and analogues as antibacterial agents. 9. Lipophilic trimethoprim analogues as antigonococcal agents” (J Med Chem, 1988).

What was measured:
Dihydrofolate reductase = molecular target: T1, Dihydrofolate reductase (Rattus norvegicus, UniProt Q920D2); test: Inhibition of Rat liver Dihydrofolate reductase(DHFR); conditions: read-out: I50
T1 sequence (Q920D2 whole entry): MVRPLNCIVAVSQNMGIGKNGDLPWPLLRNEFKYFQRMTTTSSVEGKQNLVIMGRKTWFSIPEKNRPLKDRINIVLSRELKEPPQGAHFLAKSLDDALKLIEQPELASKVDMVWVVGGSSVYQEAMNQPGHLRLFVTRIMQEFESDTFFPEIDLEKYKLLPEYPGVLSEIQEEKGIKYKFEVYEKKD

Escherichia coli = test: Inhibition of growth of Escherichia coli (CN314) measured as MIC compound/MIC Trimethoprim; format: functional
Rattus norvegicus [1] = test: Conc in serum of male rat 1.5h after administration of dose; format: functional, organism-based
Rattus norvegicus [2] = test: Conc in serum of male rat 1 hr after administration of dose; format: functional, organism-based
Rattus norvegicus [3] = test: Conc in serum of male rat 24 hr after administration of dose; format: functional, organism-based
Rattus norvegicus [4] = test: Conc in serum of male rat 4 hr after administration of dose; format: functional, organism-based
Rattus norvegicus [5] = test: Conc in stomach of male rat 0.50 hr after administration of dose; format: functional, organism-based
Rattus norvegicus [6] = test: Conc in stomach of male rat 10h after administration of dose; format: functional, organism-based
Rattus norvegicus [7] = test: Conc in stomach of male rat 1 hr after administration of dose; format: functional, organism-based
Rattus norvegicus [8] = test: Conc in stomach of male rat 2 hr after administration of dose; format: functional, organism-based
Rattus norvegicus [9] = test: Conc in stomach of male rat 3h after administration of dose; format: functional, organism-based
Rattus norvegicus [10] = test: Conc in muscle of male rat 1 hr after administration of dose; format: functional, organism-based; conditions: Muscle tissue
Rattus norvegicus [11] = test: Conc in muscle of male rat 24 hr after administration of dose; format: functional, organism-based; conditions: Muscle tissue
Rattus norvegicus [12] = test: Conc in ovary of female rat 0.50 hr after administration of dose; format: functional, organism-based; conditions: Female gonad
Rattus norvegicus [13] = test: Conc in ovary of female rat 24 hr after administration of dose; format: functional, organism-based; conditions: Female gonad
Rattus norvegicus [14] = test: Conc in testes of male rat 0.25 hr after administration of dose; format: functional, organism-based; conditions: Testis
Rattus norvegicus [15] = test: Conc in testes of male rat 0.50 hr after administration of dose; format: functional, organism-based; conditions: Testis
Rattus norvegicus [16] = test: Conc in intestine of male rat 1 hr after administration of dose; format: functional, organism-based
Rattus norvegicus [17] = test: Conc in kidney of male rat after 0.75h administration of dose; format: functional, organism-based
Rattus norvegicus [18] = test: Conc in liver of male rat 0.50 hr after administration of dose; format: functional, organism-based
Rattus norvegicus [19] = test: Conc in liver of male rat 1.5h after administration of dose; format: functional, organism-based
Rattus norvegicus [20] = test: Conc in liver of male rat 6 hr after administration of dose; format: functional, organism-based
Rattus norvegicus [21] = test: Conc in serum of female rat 0.50 hr after administration of dose; format: functional, organism-based
Rattus norvegicus [22] = test: Conc in serum of female rat 0.75h after administration of dose; format: functional, organism-based
Rattus norvegicus [23] = test: Conc in serum of female rat 24 hr after administration of dose; format: functional, organism-based
Rattus norvegicus [24] = test: Conc in serum of female rat 3h after administration of dose; format: functional, organism-based
Rattus norvegicus [25] = test: Conc in serum of male rat 0.50 hr after administration of dose; format: functional, organism-based
Rattus norvegicus [26] = test: Conc in lung of male rat 4 hr after administration of dose; format: functional, organism-based
Rattus norvegicus [27] = test: Conc in brain of male rat 24 hr after administration of dose; format: functional, organism-based
Rattus norvegicus [28] = test: Conc in intestine of male rat 0.25 hr after administration of dose; format: functional, organism-based
Rattus norvegicus [29] = test: Conc in intestine of male rat 1.5h after administration of dose; format: functional, organism-based
Staphylococcus aureus = test: Inhibition of growth of Staphylococcus aureus (CN491) measured as MIC compound/MIC Trimethoprim; format: functional

CC(C)c1cc(Cc2cnc(N)nc2N)cc(C(C)C)c1O gave an IC50 (Dihydrofolate reductase) of 7.2 µM, an MIC ratio (Escherichia coli) of 300 and a Concentration (Rattus norvegicus [1]) of 0.8 µg/g. It also gave a Concentration (Rattus norvegicus [2]) of 0.92 µg/g, a Concentration (Rattus norvegicus [3]) of 0.08 µg/g and a Concentration (Rattus norvegicus [4]) of 0.42 µg/g. It also gave a Concentration (Rattus norvegicus [5]) of 304 µg/g, a Concentration (Rattus norvegicus [6]) of 2 µg/g and a Concentration (Rattus norvegicus [7]) of 47 µg/g. It also gave a Concentration (Rattus norvegicus [8]) of 46.1 µg/g, a Concentration (Rattus norvegicus [9]) of 8.92 µg/g and a Concentration (Rattus norvegicus [10]) of 2.36 µg/g. For the same compound, the Concentration (Rattus norvegicus [11]) was 0.04 µg/g, the Concentration (Rattus norvegicus [12]) was 4.06 µg/g and the Concentration (Rattus norvegicus [13]) was 0.08 µg/g. It also gave a Concentration (Rattus norvegicus [14]) of 1.34 µg/g, a Concentration (Rattus norvegicus [15]) of 1.07 µg/g and a Concentration (Rattus norvegicus [16]) of 26 µg/g. The Concentration (Rattus norvegicus [17]) was 10.3 µg/g, the Concentration (Rattus norvegicus [18]) was 29.9 µg/g and the Concentration (Rattus norvegicus [19]) was 13.5 µg/g. It also gave a Concentration (Rattus norvegicus [20]) of 5.14 µg/g, a Concentration (Rattus norvegicus [21]) of 0.9 µg/g and a Concentration (Rattus norvegicus [22]) of 1.44 µg/g. For the same compound, the Concentration (Rattus norvegicus [23]) was 0.14 µg/g, the Concentration (Rattus norvegicus [24]) was 0.61 µg/g and the Concentration (Rattus norvegicus [25]) was 1.12 µg/g. For the same compound, the Concentration (Rattus norvegicus [26]) was 2.3 µg/g, the Concentration (Rattus norvegicus [27]) was 0.004 µg/g and the Concentration (Rattus norvegicus [28]) was 158 µg/g. It also gave a Concentration (Rattus norvegicus [29]) of 14.9 µg/g and an MIC ratio (Staphylococcus aureus) of 10.
